In patent publication US20260250318A1, “COMPOSITIONS AND METHODS FOR CROSSING THE BLOOD BRAIN BARRIER” (VOYAGER THERAPEUTICS, INC., priority 2022, published 2026):

Experiments:
[1] = test system: brains, heart, liver, muscle, and DRG of the NHPs; assay: Maturation of TTM-001 and TTM-002 capsids, NGS enrichment in NHP tissues; type: in vivo; settings: relative to AAV9 control
Procedure, shortened: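 Variants carry mutations within and flanking the loop IV peptide insert: positions 450–466 were triplet-randomized, while positions 449–466 received low-frequency point mutations. The combined pool went into two NHPs, and each peptide was scored by NGS enrichment ratio against AAV9.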

brain = assay: Matured TTM-001 and TTM-002 variants, NGS enrichment in mouse brain; type: in vivo, mice; settings: relative to AAV9 control
[2] = NGS fold-enrichment of matured AAV capsid variants, NHP brain, RNA
[3] = NGS fold-enrichment of RNA, NHP brain
[4] = NGS fold-enrichment, DRG of NHPs
[5] = NGS fold-enrichment, NHP liver DNA
[6] = NGS fold-enrichment, NHP liver RNA
[7] = NGS fold-enrichment, NHP muscle
[8] = NGS fold-enrichment, RNA, brain of NHPs
[9] = NGS fold-enrichment, heart of NHPs
[10] = NGS fold-enrichment, liver DNA of NHPs
[11] = NGS fold-enrichment, liver RNA of NHPs
[12] = NGS fold-enrichment, muscle of NHPs
[13] = NGS fold-enrichment, brain of mice
[14] = NGS fold-enrichment, mouse brain

| Sequence | Fold Enrichment relative to AAV9, Brain (NHP) [1, 2] [fold] | Fold Enrichment relative to AAV9, DRG (NHP) ([1]; NHP DRG) [fold] | Fold Enrichment relative to AAV9, Heart (NHP) ([1]; NHP heart) [fold] | Fold Enrichment relative to AAV9, Liver DNA (NHP) ([1]; NHP liver, DNA) [fold] | Fold Enrichment relative to AAV9, Liver RNA (NHP) ([1]; NHP liver, RNA) [fold] | Fold Enrichment relative to AAV9, Muscle (NHP) ([1]; NHP muscle) [fold] | Fold Enrichment relative to AAV9, Brain (Mouse) (brain; mouse brain) [fold] | Fold Enrichment relative to AAV9, DRG (NHP) [1, 4] [fold] | Fold Enrichment relative to AAV9, Brain (NHP) [1, 8] [fold] | Fold Enrichment relative to AAV9, Heart (NHP) [1, 9] [fold] | Fold Enrichment relative to AAV9, Liver DNA (NHP) [1, 10] [fold] | Fold Enrichment relative to AAV9, Liver RNA (NHP) [1, 11] [fold] | Fold Enrichment relative to AAV9, Muscle (NHP) [1, 12] [fold] | Fold Enrichment relative to AAV9, Brain (Mouse) (brain; [13]) [fold] | also measured |
| --- | --- | --- | --- | --- | --- | --- | --- | --- | --- | --- | --- | --- | --- | --- | --- |
| KTINGSGSPHSKRLEQQT | 53.512 | 0.000 | 0.118 | 0.292 | 0.161 | 0.003 | 71.704 |  |  |  |  |  |  |  |  |
| KTINGSGSPHSKRMEQQT | 50.177 | 0.000 | 0.000 | 0.208 | 1.327 | 0.000 | 81.769 |  |  |  |  |  |  |  |  |
| KTINGSGSPHSKRPEQQT |  |  |  |  |  |  |  | 0.000 | 80.418 | 0.013 | 0.361 | 0.149 | 0.000 | 50.319 | Fold Enrichment relative to AAV9, Brain (NHP) [1, 3]: 80.418 fold; Fold Enrichment relative to AAV9, DRG (NHP) ([1]; NGS fold-enrichment, NHP DRG): 0.000 fold; Fold Enrichment relative to AAV9, Heart (NHP) ([1]; NGS fold-enrichment, NHP heart): 0.013 fold; Fold Enrichment relative to AAV9, Liver DNA (NHP) [1, 5]: 0.361 fold; Fold Enrichment relative to AAV9, Liver RNA (NHP) [1, 6]: 0.149 fold; Fold Enrichment relative to AAV9, Muscle (NHP) [1, 7]: 0.000 fold; Fold Enrichment relative to AAV9, Brain (Mouse) (brain; [14]): 50.319 fold |
| KTINGSGSPHSKSQNQHI |  |  |  |  |  |  |  | 0.000 | 59.438 | 0.099 | 0.108 | 0.111 | 0.000 | 76.025 |  |
| KTINGSGSPHSKSQNVQT |  |  |  |  |  |  |  | 0.000 | 66.627 | 0.190 | 0.188 | 0.202 | 0.000 | 56.672 |  |
| KTINGSGSPHSKSQSQLT | 55.430 | 0.000 | 0.035 | 0.013 | 0.050 | 0.000 | 125.577 |  |  |  |  |  |  |  |  |
| KTINGSGSPHSKSQSQQI |  |  |  |  |  |  |  | 0.000 | 61.870 | 0.000 | 0.175 | 0.200 | 0.000 | 64.027 |  |
| KTINGSGSPHSKSQTQQN |  |  |  |  |  |  |  | 0.000 | 104.474 | 0.131 | 0.038 | 0.084 | 0.000 | 54.021 | Fold Enrichment relative to AAV9, Brain (NHP) [1, 3]: 104.474 fold; Fold Enrichment relative to AAV9, DRG (NHP) ([1]; NGS fold-enrichment, NHP DRG): 0.000 fold; Fold Enrichment relative to AAV9, Heart (NHP) ([1]; NGS fold-enrichment, NHP heart): 0.131 fold; Fold Enrichment relative to AAV9, Liver DNA (NHP) [1, 5]: 0.038 fold; Fold Enrichment relative to AAV9, Liver RNA (NHP) [1, 6]: 0.084 fold; Fold Enrichment relative to AAV9, Muscle (NHP) [1, 7]: 0.000 fold; Fold Enrichment relative to AAV9, Brain (Mouse) (brain; [14]): 54.021 fold |
| KTINGSGSPHSKTKSQQT |  |  |  |  |  |  |  | 0.000 | 70.891 | 0.568 | 0.496 | 0.418 | 0.045 | 83.923 |  |
| KTINGSGSPHSKTQNHQN | 55.551 | 0.000 | 0.048 | 0.099 | 0.000 | 0.000 | 64.846 |  |  |  |  |  |  |  |  |
| KTINGSGSPHSKVPNLQT | 57.046 | 0.000 | 0.029 | 0.082 | 0.459 | 0.000 | 50.474 |  |  |  |  |  |  |  |  |
